31 molecules from patent US10858335B2 (Rigel Pharmaceuticals, Inc., priority 2014, dated 2020) can be followed below.

In this test the test system is GDF8 signaling (p-SMAD-3 (Ser423/425)). In words: AlphaScreen SureFire SMAD3 (p-Ser423/425) assay, GDF8-stimulated cells (GDF pSMAD). The note with it: Mus musculus, MPC-11, MPC11; GDF8-stimulated; p-SMAD3 AlphaScreen; read-out: GDF pSMAD (MPC11) (inhibition of GDF8 signaling). It counts as cell-based.
As to `CCOC(=O)c1cnn2ccc(-c3cccnc3-c3ccc(F)c(Cl)c3)nc12` [compound 898, Ethyl 5-(2-(3-chloro-4-fluorophenyl)pyridin-3-yl)pyrazolo[1,5-a]pyrimidine-3-carboxylate], the IC50 was 714 nM.

For the molecule `CN1CCC(NC(=O)c2cnn3ccc(-c4cccnc4-c4ccc(F)c(Cl)c4)nc23)CC1` [compound 899, 5-(2-(3-Chloro-4-fluorophenyl)pyridin-3-yl)-N-(1-methylpiperidin-4-yl)pyrazolo[1,5-a]pyrimidine-3-carboxamide], the IC50 was found to be 2140 nM.

Regarding `N#Cc1cnn2ccc(-c3cccnc3-c3ccc(F)c(Cl)c3)nc12` [compound 900, 5-(2-(3-Chloro-4-fluorophenyl)pyridin-3-yl)pyrazolo[1,5-a]pyrimidine-3-carbonitrile], the IC50 is 2350 nM.

As for `Cc1cc(-c2ncccc2-c2ccn3ncc(C#N)c3n2)ccc1F` [compound 901, 5-(2-(4-Fluoro-3-methylphenyl)pyridin-3-yl)pyrazolo[1,5-a]pyrimidine-3-carbonitrile], the IC50 was found to be 1060 nM.

Take `COc1cc(Nc2nccc(-c3cccnc3-c3ccc(F)c(C)c3)n2)cc(OC)c1OC` [compound 903, 4-(2-(4-Fluoro-3-methylphenyl)pyridin-3-yl)-N-(3,4,5-trimethoxyphenyl)pyrimidin-2-amine]: the IC50 was 2580 nM.

As to `Cc1cc(-c2ncccc2-c2ccnc(Nc3ccc(N4CCOCC4)cc3)n2)ccc1F` [compound 904, 4-(2-(4-Fluoro-3-methylphenyl)pyridin-3-yl)-N-(4-morpholinophenyl)pyrimidin-2-amine], the IC50 was found to be 9070 nM.

Consider `Cc1cc(-c2ncccc2-c2ccnc(Nc3cccc(N4CCOCC4)c3)n2)ccc1F` [compound 905, 4-(2-(4-Fluoro-3-methylphenyl)pyridin-3-yl)-N-(3-morpholinophenyl)pyrimidin-2-amine], for which the IC50 amounted to 1490 nM.

In the case of `Cc1cc(-c2ncccc2-c2ccnc(Nc3ccc(S(N)(=O)=O)cc3)n2)ccc1F` [compound 906, 4-((4-(2-(4-Fluoro-3-methylphenyl)pyridin-3-yl)pyrimidin-2-yl)amino)benzenesulfonamide], the IC50 was determined as 3340 nM.

Take `Cc1cc(-c2ncccc2-c2ccnc(Nc3cccc(S(N)(=O)=O)c3)n2)ccc1F` [compound 907, 3-((4-(2-(4-Fluoro-3-methylphenyl)pyridin-3-yl)pyrimidin-2-yl)amino)benzenesulfonamide]: the IC50 amounted to 164 nM.

As to `Cc1cc(-c2ncccc2-c2ccn3nccc3n2)ccc1F` [compound 910, 5-(2-(4-Fluoro-3-methylphenyl)pyridin-3-yl)pyrazolo[1,5-a]pyrimidine], the IC50 is 97.2 nM.

Take `Cc1cccc(-c2ncccc2-c2ccn3nccc3n2)c1` [compound 911, 5-(2-(m-Tolyl)pyridin-3-yl)pyrazolo[1,5-a]pyrimidine]: the IC50 came out at 93.9 nM.

As to `c1cc(-c2ncccc2-c2ccn3nccc3n2)cc(C2CC2)c1` [compound 912, 5-(2-(3-Cyclopropylphenyl)pyridin-3-yl)pyrazolo[1,5-a]pyrimidine], the IC50 was 112 nM.

Consider `FC(F)(F)c1cccc(-c2ncccc2-c2ccn3nccc3n2)c1` [compound 913, 5-(2-(3-(Trifluoromethyl)phenyl)pyridin-3-yl)pyrazolo[1,5-a]pyrimidine], for which the IC50 amounted to 661 nM.

Consider `Fc1ccc(-c2ncccc2-c2ccn3nccc3n2)cc1Cl` [compound 914, 5-(2-(3-Chloro-4-fluorophenyl)pyridin-3-yl)pyrazolo[1,5-a]pyrimidine], for which the IC50 was 126 nM.

Take `Fc1cc(F)c(-c2ncccc2-c2ccn3nccc3n2)cc1F` [compound 915, 5-(2-(2,4,5-Trifluorophenyl)pyridin-3-yl)pyrazolo[1,5-a]pyrimidine]: the IC50 stood at 558 nM.

For `Clc1cccc(-c2ncccc2-c2ccn3nccc3n2)c1` [compound 916, 5-(2-(3-Chlorophenyl)pyridin-3-yl)pyrazolo[1,5-a]pyrimidine], the IC50 amounted to 104 nM.

With `Fc1ccc(Cl)cc1-c1ncccc1-c1ccn2nccc2n1` [compound 917, 5-(2-(5-Chloro-2-fluorophenyl)pyridin-3-yl)pyrazolo[1,5-a]pyrimidine], the IC50 was 180 nM.

Regarding `Fc1cc(F)c(-c2ncccc2-c2ccn3nccc3n2)cc1Cl` [compound 918, 5-(2-(5-Chloro-2,4-difluorophenyl)pyridin-3-yl)pyrazolo[1,5-a]pyrimidine], the IC50 was 206 nM.

`Clc1ccc(Cl)c(-c2ncccc2-c2ccn3nccc3n2)c1` [compound 920, 5-(2-(2,5-Dichlorophenyl)pyridin-3-yl)pyrazolo[1,5-a]pyrimidine]: the IC50 is 272 nM.

In the case of `FC(F)Oc1cccc(-c2ncccc2-c2ccn3nccc3n2)c1` [compound 921, 5-(2-(3-(Difluoromethoxy)phenyl)pyridin-3-yl)pyrazolo[1,5-a]pyrimidine], the IC50 came out at 70.6 nM.

Regarding `Cc1cc(-c2ncccc2-c2ccc3nccn3n2)ccc1F` [compound 934, 6-(2-(4-Fluoro-3-methylphenyl)pyridin-3-yl)imidazo[1,2-b]pyridazine], the IC50 came to 410 nM.

For `Fc1ccc(-c2ncccc2-c2ccc3nccn3n2)cc1Cl` [compound 935, 6-(2-(3-Chloro-4-fluorophenyl)pyridin-3-yl)imidazo[1,2-b]pyridazine], the IC50 turned out to be 192 nM.

Consider `Clc1cccc(-c2ncccc2-c2ccc3nccn3n2)c1` [compound 936, 6-(2-(3-Chlorophenyl)pyridin-3-yl)imidazo[1,2-b]pyridazine], for which the IC50 turned out to be 228 nM.

For the molecule `Fc1cc(F)c(-c2ncccc2-c2ccc3nccn3n2)cc1Cl` [compound 938, 6-(2-(5-Chloro-2,4-difluorophenyl)pyridin-3-yl)imidazo[1,2-b]pyridazine], the IC50 came to 242 nM.

As for `Cc1cc(-c2ncccc2-c2ccc3ncc(C#N)n3n2)ccc1F` [compound 947, 6-(2-(4-Fluoro-3-methylphenyl)pyridin-3-yl)imidazo[1,2-b]pyridazine-3-carbonitrile], the IC50 amounted to 429 nM.

As to `N#Cc1cnc2ccc(-c3cccnc3-c3ccc(F)c(Cl)c3)nn12` [compound 948, 6-(2-(3-Chloro-4-fluorophenyl)pyridin-3-yl)imidazo[1,2-b]pyridazine-3-carbonitrile], the IC50 was found to be 951 nM.

For the molecule `N#Cc1cnc2ccc(-c3cccnc3-c3cccc(Cl)c3)nn12` [compound 949, 6-(2-(3-Chlorophenyl)pyridin-3-yl)imidazo[1,2-b]pyridazine-3-carbonitrile], the IC50 came to 375 nM.

As to `N#Cc1cnc2ccc(-c3cccnc3-c3cc(Cl)ccc3F)nn12` [compound 950, 6-(2-(5-Chloro-2-fluorophenyl)pyridin-3-yl)imidazo[1,2-b]pyridazine-3-carbonitrile], the IC50 stood at 129 nM.

On to `N#Cc1cnc2ccc(-c3cccnc3-c3cc(Cl)c(F)cc3F)nn12` [compound 951, 6-(2-(5-Chloro-2,4-difluorophenyl)pyridin-3-yl)imidazo[1,2-b]pyridazine-3-carbonitrile], for which the IC50 came to 543 nM.

As to `Cc1cc(-c2ncccc2-c2ccc3ncnn3n2)ccc1F` [compound 952, 6-(2-(4-Fluoro-3-methylphenyl)pyridin-3-yl)-[1,2,4]triazolo[1,5-b]pyridazine], the IC50 was determined as 391 nM.

In the case of `Fc1ccc(-c2ncccc2-c2ccc3ncnn3n2)cc1Cl` [compound 953, 6-(2-(3-Chloro-4-fluorophenyl)pyridin-3-yl)-[1,2,4]triazolo[1,5-b]pyridazine], the IC50 came to 661 nM.
